Like-named read-outs stand apart in the source and are kept apart here.
Tests used:
[1] = system: patients with heart failure with reduced ejection fraction
[2] = system: patients with chronic kidney disease (CKD)
[3] = system: patients with CKD and prediabetes
[4] = system: patients with chronic kidney disease (CKD); remark: listed apart in the source
Method: The study population chosen for this study included a broad population of patients with impaired kidney function. The target population had CKD (defined as eGFR ≥25 and ≤75 mL/min/1.73 m^2) with albuminuria (defined as urine albumin creatinine ratio [UACR]≥200 and ≤5000 mg/g) with or without type 2 diabetes (T2D).
Patients included in the study satisfied the following criteria: • Female or male aged ≥18 years at the time of consent. • eGFR ≥25 and ≤75 mL/min/1.73 m^2 (CKD-EPI Formula) at visit 1. • Evidence of increased albuminuria 3 months or more before visit 1 and UACR ≥200 and ≤5000 mg/g at visit 1. • Stable, and for the patient maximum tolerated labelled daily dose, treatment with ACE-I or ARB for at least 4 weeks before visit 1, if not medically contraindicated.
The primary outcome measure was based on the requirements as outlined in the European Medicines Agency (EMA)'s draft guideline, which states that a composite endpoint of ≥50% sustained decline in eGFR, end stage renal disease (ESRD), and renal death (death due to ESRD when dialysis is not given) are acceptable outcome measures (EMA 2016). This endpoint has also been used in a number of previous outcome studies.
The primary variable was the time to first event included in the primary composite endpoint. The primary analysis was based on the intention to treat (ITT) principle using the FAS.

[5] = dapa group, DAPA-HF non-T2D patients
[6] = Dapa 10 mg (N = 2149), on-treatment period per Table 2 footnote
[7] = No diabetes, Dapa 10 mg (N = 696), on- and off-treatment periods
[8] = patients with T2DM, Dapa 10 mg (N = 1453), on- and off-treatment periods
[9] = dapagliflozin 10 mg once daily, CKD and prediabetes, median follow-up of 2.4 years
[10] = vs placebo or standard of care CKD agent alone, in words
[11] = vs placebo or standard of care CKD agent alone, in words, listed as Dapagliflozin

With `CCOc1ccc(Cc2cc([C@@H]3O[C@H](CO)[C@@H](O)[C@H](O)[C@H]3O)ccc2Cl)cc1` [dapagliflozin] as the compound, how does the new-onset diabetes [1, 5] read?
Its new-onset diabetes is 4.9%.

What about the “new-onset diabetes (patients/group)” value [1, 5] of the same compound?
The value was 64/1298.

And the “HR, new-onset diabetes” value ([1]; dapa vs placebo, 95% CI, 0.50-0.94, p=0.019, Cox)?
Its value is 0.68.

And the “reduction of new-onset diabetes” value ([1]; dapa vs placebo, DAPA-HF non-T2D patients)?
Its value is 32%.

And the “SAE: Infections and infestations” value ([2]; Dapa 10 mg (N = 2149), on-treatment period)?
Its value is 171 (8.0) Number (%) of subjects.

And the “Any AE with outcome = death” value [2, 6]?
The value was 106 (4.9) Number (%) of subjects.

What about the “Any SAE (including events with outcome = death)” value (shortened to “Any SAE”) [2, 6] of the same compound?
The value was 633 (29.5) Number (%) of subjects.

What about the “Any AE with outcome = death” value [2, 7] of the same compound?
Its value is 17 (2.4) Number (%) of subjects.

And the “Any SAE” value [2, 7]?
The value was 150 (21.6) Number (%) of subjects.

What about the “Deaths, SAEs (serious adverse events) and DAEs (discontinuations due to adverse event)” value ([2]; dapagliflozin group compared with placebo group, in words) of the same compound?
Its value is “fewer”.

And the “AEs leading to dose reduction” value ([2]; human, in vivo)?
Its value is “few but more common”.

And the “patients reported SAEs, overall” value ([2]; human, in vivo)?
The value was “fewer”.

What about the “Any AE with outcome = death” value [2, 8] of the same compound?
Its value is 89 (6.1) Number (%) of subjects.

And the “Any SAE” value [2, 8]?
The value was 483 (33.2) Number (%) of subjects.

What about the “T2D developed in” value [3, 9] of the same compound?
The value was 3.0%.

And the “T2D developed in (patients/group)” value [3, 9]?
Its value is 21/697.

And the “event rate of newly diagnosed T2D” value ([3]; dapagliflozin 10 mg once daily, median follow-up of 2.4 years)?
Its value is 1.5 /100-patient years.

And the “reduction in T2D incidence” value ([3]; dapagliflozin vs placebo)?
Its value is 38%.

And the “hazard ratio, primary end point (≥50% sustained decline in eGFR, ESRD, and CV or renal death)” value ([4]; dapagliflozin vs placebo, 95% CI 0.51 to 0.72, P<0.0001)?
Its value is 0.61.

And the “effect on death from any cause” value [4, 10]?
Its value is “superior”.

And the “effect on renal-only secondary endpoint (composite of ≥50% sustained decline in eGFR, ESRD & renal death; renal composite without CV death)” value [4, 10]?
The value was “superior”.

What about the “effect on secondary endpoint composite of CV death and hospitalisation for HF” value [4, 10] of the same compound?
Its value is “superior”.

And the “effect on time to first, second, or third hospitalisation for HF (exploratory endpoints)” value [4, 10]?
Its value is “superior”.

What about the “effect on death from any cause” value [4, 11] of the same compound?
Its value is “superior to placebo”.

What about the “effect on renal-only secondary endpoint (composite of ≥50% sustained decline in eGFR, ESRD & renal death; renal composite without CV death)” value [4, 11] of the same compound?
Its value is “significant treatment effect”.

And the “effect on secondary endpoint composite of CV death and hospitalisation for HF” value [4, 11]?
The value was “Statistically significant reduction”.

What about the “effect on composite of ≥50% sustained eGFR decline, ESRD, and renal or CV death (primary objective)” value ([4]; vs placebo, in words) of the same compound?
The value was “clinically meaningful and statistically significant reduction”.

— patent publication US12213988B2 (ASTRAZENECA AB, priority 2020, dated 2025)
